Patent US4276304A, “Novel benzylalcohol derivative and process for preparing the same” (priority 1979, dated 1981)
“And” between values parts separate entries of the source, which are not always exact repeats. Equal values may be shown once. Read-outs that look alike come from different tables or passages of the source.

What was measured:
blood platelets = assay: Preventive effect upon the aggregation of blood platelets (collagen-induced, platelet-rich plasma); type: cell-based, male Sprague-Dawley rats; conditions: for inhibition at 100 µg/mL: Rattus norvegicus, Platelet
mice = assay: Acute toxicity / maximum tolerance dose (intraperitoneal injection); type: in vivo; conditions: 48 hours after intraperitoneal injection
Protocol: For example, the maximum tolerance dose (M.T.D.) of α-[(α,α-dimethyl-3,4-dimethoxyphenethylamino)methyl]-2-benzyloxybenzylalcohol oxalate and α-[(α,α-dimethyl-3,4-dimethoxyphenethylamino)methyl]-2-chlorobenzylalcohol hydrochloride which was estimated 48 hours after intraperitoneal injection thereof to a group of 4 mice was not less than 100 mg/kg.

blood sugar [1] = assay: Blood sugar-lowering activity (oral test compound, subcutaneous glucose load); type: in vivo, male ddY mice; conditions: for minimal effective dose: Mus musculus, 1 h, read-out: Minimum effective dose (blood sugar-lowering activity)
Protocol: For example, when the blood sugar-lowering activity was estimated by orally administering a test compound to mice immediately before subcutaneous injection of glucose, said activity of the compound of the present invention was about 100 to about 1000 times stronger than that of Phenformin (Chemical name: 1-phenethylbiguanide).
An aqueous solution or suspension (10 ml/kg) of a test compound was administered orally through a stomach tube to a group of male ddY mice (each group consisting of five mice) which fasted for 20 hours. A physiological saline solution (10 ml/kg) containing 10 w/v % glucose was injected subcutaneously to the mice immediately after the oral administration of the test compound. One hour after the injection of glucose, 0.02 ml of blood was collected from the tail vein of the mice. Then, the amount of glucose in the blood sample was estimated by the glucose oxidase method (H. U. Bergmeyer & E. Bernt, "Methods of Enzymatic Analysis", H. U. Bergmeyer (Ed.), Acadamic Press, New York & London, 1963, page 123). The blood sugar-lowering activity of the test compound was calculated by the following formula: [formula] Further, on the basis of the potency ratio calculated above, the activity of the test compound was expressed as follows: […]

blood sugar [2] = conditions: U.S. Pat. Nos. 4,032,575 and 4,131,686, Japanese Patent Publication No. 71428/1977; cited from earlier work
[3] = 100 μg/ml, graded against acetylsalicylic acid 100 μg/ml
[4] = test compound 100 μg/ml, collagen, rat PRP
[5] = read-out: Inhibition (%) against platelet aggregation, A* (test compound group)

| Compound | Platelet aggregation inhibiting activity (blood platelets; [3]) | Inhibition (%) against platelet aggregation, A* (test compound group) (blood platelets; [4]) [%] | Minimum effective dose (blood sugar-lowering activity) (blood sugar [1]; oral, mice) [mg/kg] | also measured |
| --- | --- | --- | --- | --- |
| α-[(α,α-dimethyl-3,4-dimethoxyphenethylamino)methyl]-2-chlorobenzylalcohol hydrochloride [Test compound 10] | ++ | 84 | 1.0 | maximum tolerance dose (M.T.D.) (mice): not less than 100 mg/kg |
| α-[(α,α-dimethyl-3,4-dimethoxyphenethylamino)methyl]-2-benzyloxybenzylalcohol oxalate [Test compound 7] | + (not less than 10% inhibition of platelet aggregation but said percentage inhibition was not higher than that of acetylsalicylic acid (100 μg/ml)) | 17 | 0.3 | maximum tolerance dose (M.T.D.) (mice): not less than 100 mg/kg |
| COc1ccc(CC(C)(C)NCC(O)c2ccccc2OCc2ccccc2)cc1 (centres unmarked) [compound 2] | – | – | – | inhibition at 100 µg/mL (blood platelets; 100 μg/ml, graded against acetylsalicylic acid 100 μg/ml, read-out: Platelet aggregation inhibiting activity): > 10%; inhibition at 100 µg/mL (blood platelets; test compound 100 μg/ml, collagen, rat PRP, read-out: Inhibition (%) against platelet aggregation, A* (test compound group)): 27%; minimal effective dose (blood sugar [1]; oral, mice): 1 mg/kg |
| α-[(α,α-dimethyl-4-methoxyphenethylamino)methyl]-2-hydroxybenzylalcohol 1/2 oxalate [Test compound 1] | + (not less than 10% inhibition of platelet aggregation but said percentage inhibition was not higher than that of acetylsalicylic acid (100 μg/ml)) | 22 | 0.3 | – |
| α-[(α,α-dimethyl-4-methoxyphenethylamino)methyl]-2-benzyloxybenzylalcohol hydrochloride [Example 7] | ++ | 90 | 0.3 | – |
| α-[(α,α-dimethyl-3,4-dimethoxyphenethylamino)methyl]-2-n-butoxybenzylalcohol hydrochloride [Test compound 9] | + (not less than 10% inhibition of platelet aggregation but said percentage inhibition was not higher than that of acetylsalicylic acid (100 μg/ml)) | 33 | 1.0 | – |
| CCCCOc1ccccc1C(O)CNC(C)(C)Cc1ccc(OC)cc1 (centres unmarked) [compound 4] | – | – | – | minimal effective dose (blood sugar [1]; oral, mice): 0.3 mg/kg |
| COc1ccc(CC(C)(C)NCC(O)c2ccccc2Cl)cc1.Cl (stereo not drawn) [Test compound 5, α-[(α,α-dimethyl-4-methoxyphenethylamino)-methyl]-2-chlorobenzylalcohol hydrochloride] | – | – | – | minimal effective dose (blood sugar [1]; po): 0.1 mg/kg |
| COc1ccc(CCNCC(O)c2ccccc2OC)cc1OC (stereo not drawn) [α-[(3,4-dimethoxyphenethylamino)methyl]-2-methoxybenzylalcohol, reference compound] | – | – | – | preventive effect upon the aggregation of blood platelets (in words) (blood platelets): no substantial preventive effect; blood sugar-lowering activity (in words) (blood sugar [2]): show a blood sugar-lowering activity |
| α-[(α,α-dimethyl-2,3,4-trimethoxyphenethylamino)methyl]- 2-chlorobenzylalcohol hydrochloride [Test compound 14] | ++ | 93 | 0.1 | – |
| α-[(α,α-dimethyl-3,4-dimethoxyphenethylamino)methyl]-2-methoxybenzylalcohol hydrochloride [Test compound 8] | ++ | 57 | 1.0 | – |
| COc1ccc(CCNCC(O)c2ccccc2OCc2ccccc2)cc1OC (stereo not drawn) [α-[(3,4-dimethoxyphenethylamino)methyl]-2-benzyloxybenzylalcohol] | – | – | – | blood sugar-lowering activity (in words) (blood sugar [2]): show a blood sugar-lowering activity |
| α-[(α,α-dimethyl-4-methoxyphenethylamino)methyl]-2-n-butoxybenzylalcohol hydrochloride [Test compound 4] | + (not less than 10% inhibition of platelet aggregation but said percentage inhibition was not higher than that of acetylsalicylic acid (100 μg/ml)) | 31 | 0.1 | – |
| α-[(α,α-dimethyl-3,4-methylenedioxyphenethylamino)methyl]-2-benzyloxybenzylalcohol 1/2 oxalate [Test compound 16] | + (not less than 10% inhibition of platelet aggregation but said percentage inhibition was not higher than that of acetylsalicylic acid (100 μg/ml)) | 29 | 0.3 | – |
| α-[(α,α-dimethyl-2,3,4-trimethoxyphenethylamino)methyl]- 2-methoxybenzylalcohol hydrochloride [Test compound 13] | + (not less than 10% inhibition of platelet aggregation but said percentage inhibition was not higher than that of acetylsalicylic acid (100 μg/ml)) | 37 | 1.0 | – |
| α-[(α,α-dimethyl-3,4-methylenedioxyphenethylamino)methyl]-2-methoxybenzylalcohol 1/2 succinate [Test compound 17] | – | – | 2.0 | – |
| α-[(α,α-dimethyl-4-methoxyphenethylamino)methyl]-2-methoxybenzylalcohol 1/2 oxalate [Test compound 3] | + (not less than 10% inhibition of platelet aggregation but said percentage inhibition was not higher than that of acetylsalicylic acid (100 μg/ml)) | 57 | 1.0 | – |
| α-[(α,α-dimethyl-3,4-methylenedioxyphenethylamino)methyl]-2-hydroxybenzylalcohol 1/2 oxalate [Test compound 15] | – | – | 5.0 | – |
| COc1ccc(CCNCC(O)c2ccccc2O)cc1OC (stereo not drawn) [α-[(3,4-dimethoxyphenethylamino)methyl]-2-hydroxybenzylalcohol, reference compound] | – | – | – | preventive effect upon the aggregation of blood platelets (in words) (blood platelets): no substantial preventive effect; blood sugar-lowering activity (in words) (blood sugar [2]): show a blood sugar-lowering activity |
| α-[(α,α-dimethyl-3,4-dimethoxyphenethylamino)methyl]-2-hydroxybenzylalcohol 1/2 oxalate [Test compound 6] | ++ | – | 1.0 | – |
| COc1ccc(CC(C)(C)NCC(O)c2ccccc2O)cc1 (centres unmarked) [compound 1] | ++ | – | – | inhibition at 100 µg/mL (blood platelets; [5]): 90%; minimal effective dose (blood sugar [1]; po): 0.3 mg/kg |
| α-[(α,α-dimethyl-2,3,4-trimethoxyphenethylamino)methyl]- 2-hydroxybenzylalcohol 1/2 oxalate [Test compound 11] | ++ | 59 | 1.0 | – |
| α-[(α,α-dimethyl-2,3,4-trimethoxyphenethylamino)methyl]- 2-benzyloxybenzylalcohol 1/2 oxalate [Test compound 12] | ++ | 85 | 1.0 | – |
| CC(=O)Oc1ccccc1C(=O)O [acetylsalicylic acid, reference compound] | – | – | – | Inhibition (%) against platelet aggregation, B** (acetylsalicylic acid group) (blood platelets; acetylsalicylic acid 100 μg/ml, comparison group for the test compound of the same line): 31% and 58% and 50% and 56% and 54% |
| COc1ccc(CC(C)(C)NCC(O)c2ccccc2OC)cc1 (centres unmarked) [compound 3] | ++ | – | – | inhibition at 100 µg/mL (blood platelets; [5]): 80%; minimal effective dose (blood sugar [1]; po): 0.1 mg/kg |
